Entries after “also recorded” stand apart in the source; their conditions may differ. Non-standard residues stand in square brackets, D forms with d. Residues, ends and D or L forms follow the SMILES beside them.
Columns and labels:
[1] = Acute toxicity in mice, single injection; type: in vivo; settings: mouse, in vivo; mice, Table 3; read-out: Toxicity LD50 in mice
Protocol: (§1) The study was conducted in 82 BALB/c mice (both males and females, body weight 18-24 g) obtained from the animal facility of the Scientific Center for Biomedical Technologies of the Federal Medico-Biological Agency of the Russian Federation (SCBMT). The animals were certified and otherwise healthy. The animals were kept in T-3 cages (5-10 animals per cage) with artificial 12 hrs light-dark cycles and 16× per hour forced air ventilation, temperature of 20-22° C. and 50-65% humidity on wood chips sterilized by hot air. The animals had free access to drinking water and PK-120-1 mouse cubes (GOST P50258-92; Laboratorsnab LLC, Russia).
(§2) PIK2 and PIK7 peptides were dissolved in water and administered to mice as a single intraperitoneal injection. The animals were followed for 14 days after peptide injections. An increasing dosage scheme was applied where each tested dose surpassed the previous dose by 50%. The lowest dose of the active substance was determined that caused animal death.

BALB/c mice = assay: Acute toxicity in mice, single injection; type: in vivo
Protocol: as §1, §2

[2] = tested on: myosin regulatory light chain (RLC) phosphorylation in EA.hy926 endothelial cells; assay: Thrombin-induced myosin RLC phosphorylation in endothelial cells (immunoblotting); type: cell-based; settings: peptide 100 μM, 1 hr; thrombin 100 nM, 20 min
Protocol: FIG. 4. Inhibition of the thrombin-induced RLC phosphorylation in EA.hy926 endothelial cells by PIK2, PIK7 ([D-Lys^12]-MLC11-19), or MLC11-19 MLCK peptide inhibitors. Inhibitors were added up to 100 μM, n=3-5. p<0.05 for PIK2, PIK7 vs control (0, 20 min). p<0.05 for PIK2 vs PIK7 (0, 20 min).
Inhibitory effects of the claimed peptide (PIK7), its prototype (PIK2), and analogue (MLC11-19) were compared in an assay of myosin regulatory light chain (RLC) phosphorylation in vitro as described in Example 4.
Antagonistic effects of MLCK peptide inhibitors on the thrombin-mediated RLC phosphorylation in EA.hy926 endothelial cells were tested as follows. The cells were grown in 35-mm dishes in DMEM at 37° C. and the 5% CO2 atmosphere until the monolayer formed. Then, the cells were serum-starved while simultaneously incubated with 100 μM MLCK inhibitors at 37° C., 5% CO2 for 1 hr (control, 0 min). Next, the cells were stimulated with 100 nM thrombin for 20 min and collected on ice, i.e. the medium was decanted, the cells were washed with cold PBS and lysed with 100 μL of Laemmli denaturing electrophoresis buffer. The sample proteins were separated by SDS-PAGE and proceeded to immunoblotting with anti-total, anti-monophosphorylated, and anti-diphosphorylated RLC. […]

For `C[C@H](NC(=O)[C@H](C)NC(=O)[C@H](CCCNC(=N)N)NC(=O)[C@@H](CCCCN)NC(=O)[C@@H](N)CCCCN)C(=O)N[C@@H](CCCNC(=N)N)C(=O)N[C@@H](C)C(=O)N[C@H](C(=O)N[C@@H](CO)C(N)=O)[C@@H](C)O` [PIK7, H-Lys-D-Lys-Arg-Ala-Ala-Arg-Ala-Thr-Ser-NH2] (H-K[dK]RAARATS-NH2), the LD50 [1] was over 1000 mg/kg, the “lowest lethal dose, fold higher than with PIK2” value (BALB/c mice; BALB/c mice, single intraperitoneal injection) was 47 fold and the “lowest dose of the active substance that caused animal death” value (BALB/c mice; BALB/c mice, single intraperitoneal injection, followed 14 days) was 1274 mg/kg. The “signs after a toxic dose” value (BALB/c mice; mice, single intraperitoneal injection of a toxic dose) was “movement retardation and death within the following 24 hrs” and the “inhibition of thrombin-induced RLC phosphorylation” value [2] was “inhibited myosin RLC phosphorylation in endothelial cells with efficacy higher than that of either the prototype, PIK2, or the analogue, MLC11-19; also recorded: inhibits RLC phosphorylation in endothelial cells and its efficacy is superior to both the prototype, PIK2, and the analogue, MLC11-19”.

Source: US20210340178A1, “NONAPEPTIDE PREVENTING INCREASED HYPERPERMEABILITY OF VASCULAR ENDOTHELIUM” (FEDERALNOYE GOSUDARSTVENNOE BUDGETNOE UCHREZHDENIE …, priority 2018, published 2021)
